Reference: EP4722207A1, “OXOISOINDOLINYL-SUBSTITUTED TETRAHYDROPYRIMIDINEDIONE DERIVATIVE AND USE THEREOF” (Gluetacs Therapeutics (Shanghai) Co., Ltd., priority 2023, dated 2024)

Columns and labels:
H292 = assay: Cell viability assay (CellTiter-Meiluncell Luminescent), tumor cell proliferation, H292; conditions: Homo sapiens, NCI-H292, 96 h; for inhibition at 0.01 µM: read-out: Inhibition Rate at 10 nM (%); for inhibition at 0.5 µM: read-out: Inhibition Rate at 500 nM (%)
MV-4-11 = assay: Cell viability assay (CellTiter-Meiluncell Luminescent), tumor cell proliferation, MV-4-11; conditions: Homo sapiens, MV4-11, 96 h; for inhibition at 0.01 µM: read-out: Inhibition Rate at 10 nM (%); for inhibition at 0.5 µM: read-out: Inhibition Rate at 500 nM (%)
MDA-MB-231 = assay: Cell viability assay (CellTiter-Meiluncell Luminescent), tumor cell proliferation, MDA-MB-231; conditions: Homo sapiens, MDA-MB-231, 96 h; for inhibition at 0.01 µM: read-out: Inhibition Rate at 10 nM (%); for inhibition at 0.5 µM: read-out: Inhibition Rate at 500 nM (%)
IKZF3 = molecular target: T1, IKZF3 (Homo sapiens, UniProt Q96SW2+Q9UKT9); assay: Western-blot assay, substrate protein degradation in hPBMCs: IKZF3; format: cell-based; conditions: 24 hours of compound treatment, 50 nM and 500 nM
T1 construct: effects of the compounds of the present disclosure on the expression of target proteins in cells; endogenous in cells; host or cells: human PBMCs (hPBMCs)
T1 sequence (Q9UKT9 whole entry): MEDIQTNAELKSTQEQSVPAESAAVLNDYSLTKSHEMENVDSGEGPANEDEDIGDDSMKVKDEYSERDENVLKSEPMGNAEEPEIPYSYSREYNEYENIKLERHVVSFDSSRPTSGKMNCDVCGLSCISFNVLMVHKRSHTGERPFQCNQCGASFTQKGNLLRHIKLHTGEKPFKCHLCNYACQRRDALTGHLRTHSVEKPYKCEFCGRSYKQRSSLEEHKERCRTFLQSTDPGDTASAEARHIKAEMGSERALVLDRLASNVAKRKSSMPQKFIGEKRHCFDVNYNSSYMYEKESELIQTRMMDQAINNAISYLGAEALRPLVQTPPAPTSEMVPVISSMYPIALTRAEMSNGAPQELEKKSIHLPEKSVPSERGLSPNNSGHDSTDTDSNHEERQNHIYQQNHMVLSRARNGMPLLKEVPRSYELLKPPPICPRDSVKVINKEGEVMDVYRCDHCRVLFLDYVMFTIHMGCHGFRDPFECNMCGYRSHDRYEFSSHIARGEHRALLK
T1 sequence (Q96SW2 whole entry): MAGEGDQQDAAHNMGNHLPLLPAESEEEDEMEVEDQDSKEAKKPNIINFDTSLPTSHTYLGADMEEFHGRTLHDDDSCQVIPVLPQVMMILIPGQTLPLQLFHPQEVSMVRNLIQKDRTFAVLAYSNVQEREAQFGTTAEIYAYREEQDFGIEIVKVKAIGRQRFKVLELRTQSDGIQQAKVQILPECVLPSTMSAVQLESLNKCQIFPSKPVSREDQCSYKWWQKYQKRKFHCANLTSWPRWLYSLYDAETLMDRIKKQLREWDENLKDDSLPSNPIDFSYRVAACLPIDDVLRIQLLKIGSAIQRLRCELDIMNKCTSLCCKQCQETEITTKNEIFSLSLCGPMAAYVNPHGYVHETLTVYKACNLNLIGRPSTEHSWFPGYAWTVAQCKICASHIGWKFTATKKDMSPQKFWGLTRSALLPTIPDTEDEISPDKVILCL
T1 sequence (Q16531 whole entry partner): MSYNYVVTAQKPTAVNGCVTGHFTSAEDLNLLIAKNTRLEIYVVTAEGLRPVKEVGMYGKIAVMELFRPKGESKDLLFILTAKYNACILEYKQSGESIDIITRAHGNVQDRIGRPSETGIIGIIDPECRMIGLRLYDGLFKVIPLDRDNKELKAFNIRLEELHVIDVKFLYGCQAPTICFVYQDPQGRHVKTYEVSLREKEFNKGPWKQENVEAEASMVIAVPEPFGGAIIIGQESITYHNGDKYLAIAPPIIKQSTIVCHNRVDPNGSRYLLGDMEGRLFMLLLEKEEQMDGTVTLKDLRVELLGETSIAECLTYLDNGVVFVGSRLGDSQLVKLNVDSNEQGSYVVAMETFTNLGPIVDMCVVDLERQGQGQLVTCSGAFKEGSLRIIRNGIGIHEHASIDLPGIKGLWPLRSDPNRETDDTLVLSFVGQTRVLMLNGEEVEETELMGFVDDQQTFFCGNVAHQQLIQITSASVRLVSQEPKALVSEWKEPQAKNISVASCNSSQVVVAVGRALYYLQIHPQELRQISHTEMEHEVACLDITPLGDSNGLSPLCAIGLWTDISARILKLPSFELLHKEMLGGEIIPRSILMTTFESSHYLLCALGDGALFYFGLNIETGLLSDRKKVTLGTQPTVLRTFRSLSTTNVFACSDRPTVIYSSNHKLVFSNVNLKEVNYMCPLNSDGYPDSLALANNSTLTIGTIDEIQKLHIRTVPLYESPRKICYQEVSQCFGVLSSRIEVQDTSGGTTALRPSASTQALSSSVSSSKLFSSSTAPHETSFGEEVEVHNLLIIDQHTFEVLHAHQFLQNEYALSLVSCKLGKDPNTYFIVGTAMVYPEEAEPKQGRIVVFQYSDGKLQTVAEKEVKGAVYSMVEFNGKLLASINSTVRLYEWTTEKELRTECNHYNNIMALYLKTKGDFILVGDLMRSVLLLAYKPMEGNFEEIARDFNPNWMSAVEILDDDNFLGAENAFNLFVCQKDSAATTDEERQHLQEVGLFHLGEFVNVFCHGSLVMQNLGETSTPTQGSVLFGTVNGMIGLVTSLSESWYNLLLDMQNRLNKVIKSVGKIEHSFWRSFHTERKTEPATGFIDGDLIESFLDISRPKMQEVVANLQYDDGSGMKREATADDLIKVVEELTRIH

H2228 = assay: Cell viability assay (CellTiter-Meiluncell Luminescent), tumor cell proliferation, H2228; conditions: Homo sapiens, NCI-H2228, 96 h; for inhibition at 0.01 µM: read-out: Inhibition Rate at 10 nM (%); for inhibition at 0.5 µM: read-out: Inhibition Rate at 500 nM (%)
Method: The tumor cells used herein were cultured in a cell culture medium listed in table 2 at 37°C in an incubator with 5% CO2. Prior to experimentation, all cell lines used were correctly identified by STR profiling, and tested negative for mycoplasma contamination using a mycoplasma detection kit through routine screenings.
On the following day, the test compounds of the present disclosure were subjected to serial dilution. […] Subsequently, 0.5 µL of the test compound dilution was transferred into the 96-well plate containing the cells, with each well containing 100 µL of cell culture medium. […] Into the 96-well plate, the diluted test compounds and corresponding detection reagents were added, resulting in final test compound concentrations of 500 nM and 10 nM, respectively. The experimental procedure is described below using the diluted 2 µM test compound as an example.
After the cells were treated with the compounds of the present disclosure for a specified period, the cell viability assay reagent was added to the culture medium according to the kit's instructions to determine cell viability. […] All controls were treated using the same procedure as the compounds of the present disclosure. The growth inhibition curves for the compounds of the present disclosure were plotted using Prism GraphPad software, and the IC50 values were calculated therefrom.

WEE1 = molecular target: T2, WEE1 (Homo sapiens, UniProt P30291+Q96SW2); assay: Western-blot assay, substrate protein degradation in hPBMCs: WEE1; format: cell-based; conditions: 24 hours of compound treatment, 50 nM and 500 nM
T2 construct: effects of the compounds of the present disclosure on the expression of target proteins in cells; endogenous in cells; host or cells: human PBMCs (hPBMCs)
T2 sequence (P30291 whole entry): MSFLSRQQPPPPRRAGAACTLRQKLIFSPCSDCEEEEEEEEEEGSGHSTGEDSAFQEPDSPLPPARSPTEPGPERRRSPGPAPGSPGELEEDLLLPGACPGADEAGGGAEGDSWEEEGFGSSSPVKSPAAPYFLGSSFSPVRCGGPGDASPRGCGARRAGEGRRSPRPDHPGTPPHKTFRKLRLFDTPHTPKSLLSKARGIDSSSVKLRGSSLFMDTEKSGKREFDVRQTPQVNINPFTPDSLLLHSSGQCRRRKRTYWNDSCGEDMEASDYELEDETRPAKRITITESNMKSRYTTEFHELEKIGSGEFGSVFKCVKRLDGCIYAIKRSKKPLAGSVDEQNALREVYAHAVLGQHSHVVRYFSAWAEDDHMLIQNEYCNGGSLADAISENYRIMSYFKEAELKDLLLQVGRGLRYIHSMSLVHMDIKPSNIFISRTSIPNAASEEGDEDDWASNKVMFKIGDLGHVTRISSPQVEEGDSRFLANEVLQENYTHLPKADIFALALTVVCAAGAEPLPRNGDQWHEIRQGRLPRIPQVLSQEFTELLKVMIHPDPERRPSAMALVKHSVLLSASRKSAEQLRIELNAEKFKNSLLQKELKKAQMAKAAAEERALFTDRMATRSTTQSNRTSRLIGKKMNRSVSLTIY
T2 sequence (Q96SW2 whole entry): as the sequence (Q96SW2 whole entry) above
T2 sequence (Q16531 whole entry partner): as the sequence (Q16531 whole entry partner) above

CK1α = molecular target: T3, CK1α (Homo sapiens, UniProt P48729+Q96SW2); assay: Western-blot assay, substrate protein degradation in hPBMCs: CK1α; format: cell-based; conditions: 24 hours of compound treatment, 50 nM and 500 nM
T3 construct: effects of the compounds of the present disclosure on the expression of target proteins in cells; endogenous in cells; host or cells: human PBMCs (hPBMCs)

IKZF2 = molecular target: T4, IKZF2 (Homo sapiens, UniProt Q96SW2+Q9UKS7); assay: Western-blot assay, substrate protein degradation in hPBMCs: IKZF2; format: cell-based; conditions: 24 hours of compound treatment, 50 nM and 500 nM
T4 construct: effects of the compounds of the present disclosure on the expression of target proteins in cells; endogenous in cells; host or cells: human PBMCs (hPBMCs)
T4 sequence (Q9UKS7 whole entry): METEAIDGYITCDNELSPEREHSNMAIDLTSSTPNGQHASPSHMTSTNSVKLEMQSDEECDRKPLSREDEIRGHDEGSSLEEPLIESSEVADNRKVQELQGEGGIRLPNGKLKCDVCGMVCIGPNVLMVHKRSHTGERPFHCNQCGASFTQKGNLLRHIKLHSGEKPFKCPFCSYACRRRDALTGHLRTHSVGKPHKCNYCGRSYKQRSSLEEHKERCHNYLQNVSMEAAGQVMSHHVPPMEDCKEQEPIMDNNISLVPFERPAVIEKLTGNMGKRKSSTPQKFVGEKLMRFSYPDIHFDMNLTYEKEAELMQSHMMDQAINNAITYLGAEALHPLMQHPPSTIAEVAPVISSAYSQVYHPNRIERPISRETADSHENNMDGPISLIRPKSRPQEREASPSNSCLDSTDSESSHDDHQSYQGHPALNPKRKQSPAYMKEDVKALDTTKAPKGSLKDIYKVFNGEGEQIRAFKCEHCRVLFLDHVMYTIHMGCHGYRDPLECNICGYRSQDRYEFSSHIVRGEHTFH
T4 sequence (Q96SW2 whole entry): as the sequence (Q96SW2 whole entry) above
T4 sequence (Q16531 whole entry partner): as the sequence (Q16531 whole entry partner) above

IKZF1 = molecular target: T5, IKZF1 (Homo sapiens, UniProt Q13422+Q96SW2); assay: Western-blot assay, substrate protein degradation in hPBMCs: IKZF1; format: cell-based; conditions: 24 hours of compound treatment, 50 nM and 500 nM
T5 construct: effects of the compounds of the present disclosure on the expression of target proteins in cells; endogenous in cells; host or cells: human PBMCs (hPBMCs)
T5 sequence (Q13422 whole entry): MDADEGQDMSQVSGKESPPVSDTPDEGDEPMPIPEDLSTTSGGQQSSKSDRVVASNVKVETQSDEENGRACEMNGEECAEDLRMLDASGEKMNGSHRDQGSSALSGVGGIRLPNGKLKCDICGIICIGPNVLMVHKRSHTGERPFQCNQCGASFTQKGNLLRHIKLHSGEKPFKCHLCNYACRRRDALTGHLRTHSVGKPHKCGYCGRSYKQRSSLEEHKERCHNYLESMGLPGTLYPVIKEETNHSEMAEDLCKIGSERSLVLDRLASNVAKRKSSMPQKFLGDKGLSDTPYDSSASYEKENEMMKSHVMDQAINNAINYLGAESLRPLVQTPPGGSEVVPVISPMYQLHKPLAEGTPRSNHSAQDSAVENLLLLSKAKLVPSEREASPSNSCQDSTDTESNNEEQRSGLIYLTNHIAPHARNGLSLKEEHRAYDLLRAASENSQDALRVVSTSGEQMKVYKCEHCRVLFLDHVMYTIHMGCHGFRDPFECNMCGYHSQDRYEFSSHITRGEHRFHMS
T5 sequence (Q96SW2 whole entry): as the sequence (Q96SW2 whole entry) above
T5 sequence (Q16531 whole entry partner): as the sequence (Q16531 whole entry partner) above

GSPT1 = molecular target: T6, GSPT1 (Homo sapiens, UniProt P15170+Q96SW2); assay: Western-blot assay, substrate protein degradation in hPBMCs: GSPT1; format: cell-based; conditions: 24 hours of compound treatment, 50 nM and 500 nM
T6 construct: effects of the compounds of the present disclosure on the expression of target proteins in cells; endogenous in cells; host or cells: human PBMCs (hPBMCs)
T6 sequence (P15170 whole entry): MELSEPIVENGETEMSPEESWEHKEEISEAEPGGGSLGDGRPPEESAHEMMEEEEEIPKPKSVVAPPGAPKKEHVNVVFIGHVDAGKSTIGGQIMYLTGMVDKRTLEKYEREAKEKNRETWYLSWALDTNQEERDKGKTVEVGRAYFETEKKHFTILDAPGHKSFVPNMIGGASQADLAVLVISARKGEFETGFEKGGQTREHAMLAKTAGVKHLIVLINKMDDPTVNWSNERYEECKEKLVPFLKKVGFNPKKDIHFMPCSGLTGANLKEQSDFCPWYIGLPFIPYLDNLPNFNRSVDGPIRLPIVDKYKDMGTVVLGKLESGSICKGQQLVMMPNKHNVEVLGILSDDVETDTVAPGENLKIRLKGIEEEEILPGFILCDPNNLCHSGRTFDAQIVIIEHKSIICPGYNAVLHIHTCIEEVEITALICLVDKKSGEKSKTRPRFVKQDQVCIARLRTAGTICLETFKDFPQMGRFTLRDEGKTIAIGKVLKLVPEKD
T6 sequence (Q96SW2 whole entry): as the sequence (Q96SW2 whole entry) above
T6 sequence (Q16531 whole entry partner): as the sequence (Q16531 whole entry partner) above

| SMILES | inhibition at 0.01 µM (H292) | inhibition at 0.5 µM (H292) | inhibition at 0.01 µM (MV-4-11) | inhibition at 0.5 µM (MV-4-11) | inhibition at 0.01 µM (MDA-MB-231) | inhibition at 0.5 µM (MDA-MB-231) | substrate protein remaining % IKZF3 (IKZF3) | inhibition at 0.01 µM (H2228) | inhibition at 0.5 µM (H2228) | substrate protein remaining % WEE1 (WEE1) | substrate protein remaining % CK1α (CK1α) | substrate protein remaining % IKZF2 (IKZF2) | substrate protein remaining % IKZF1 (IKZF1) | substrate protein remaining % GSPT1 (GSPT1) |
| --- | --- | --- | --- | --- | --- | --- | --- | --- | --- | --- | --- | --- | --- | --- |
| O=C1CCN(N2Cc3cc(CN4CCC(c5ncnc6sccc56)CC4)ccc3C2=O)C(=O)N1 [GT-08082, 1-(1-oxo-5-((4-(thieno[2,3-d]pyrimidin-4-yl)piperidin-1-yl)methyl)isoindolin-2-yl)dihydropyrimidine-2,4(1H,3H)-dione] | 20 to 40% | 20 to 40% | 40 to 60% | 40 to 60% | 25 to 40% | 18 to 25% | B (80%< substrate protein remaining %≤ 100%) | 25 to 30% | 20 to 25% | A (0% ≤ substrate protein remaining % ≤ 80%) | A (0% ≤ substrate protein remaining % ≤ 80%) | B (80%< substrate protein remaining %≤ 100%) | B (80%< substrate protein remaining %≤ 100%) | A (0% ≤ substrate protein remaining % ≤ 80%) |
| Cc1sc2ncnc(C3CCN(Cc4ccc5c(c4)CN(N4CCC(=O)NC4=O)C5=O)CC3)c2c1C [GT-08084, 1-(5-((4-(5,6-dimethylthieno[2,3-d]pyrimidin-4-yl)piperidin-1-yl)methyl)-1-oxoisoindolin-2-yl)dihydropyrimidine-2,4(1H,3H)-dione] | 1 to 5% | 10 to 15% | 18 to 25% | 10 to 18% | 5 to 10% | 18 to 25% | B (80%< substrate protein remaining %≤ 100%) | 10 to 15% | 25 to 30% | B (80%< substrate protein remaining %≤ 100%) | A (0% ≤ substrate protein remaining % ≤ 80%) | B (80%< substrate protein remaining %≤ 100%) | B (80%< substrate protein remaining %≤ 100%) | A (0% ≤ substrate protein remaining % ≤ 80%) |
| O=C1CCN(N2C(=O)c3ccc(CN4CCN(c5ncnc6sc(Br)cc56)CC4)cc3C2=O)C(=O)N1 [GT-08096, 5-((4-(6-bromothieno[2,3-d]pyrimidin-4-yl)piperazin-1-yl)methyl)-2-(2,4-dioxotetrahydropyrimidin-1(2H)-yl)isoindoline-1,3-dione] | 40 to 60% | 20 to 40% | 30 to 40% | 30 to 40% | 25 to 40% | 18 to 25% | B (80%< substrate protein remaining %≤ 100%) | 30 to 40% | 20 to 25% | A (0% ≤ substrate protein remaining % ≤ 80%) | A (0% ≤ substrate protein remaining % ≤ 80%) | B (80%< substrate protein remaining %≤ 100%) | B (80%< substrate protein remaining %≤ 100%) | A (0% ≤ substrate protein remaining % ≤ 80%) |
| Cc1nc(N2CCN(Cc3ccc4c(c3)C(=O)N(N3CCC(=O)NC3=O)C4=O)CC2)c2c(-c3ccccc3)csc2n1 [GT-08099, 2-(2,4-dioxotetrahydropyrimidin-1(2H)-yl)-5-((4-(2-methyl-5-phenylthieno[2,3-d]pyrimidin-4-yl)piperazin-1-yl)methyl)isoindoline-1,3-dione] | 20 to 40% | 20 to 40% | 25 to 30% | 5 to 10% | 18 to 25% | 25 to 40% | B (80%< substrate protein remaining %≤ 100%) | 25 to 30% | 30 to 40% | B (80%< substrate protein remaining %≤ 100%) | B (80%< substrate protein remaining %≤ 100%) | B (80%< substrate protein remaining %≤ 100%) | B (80%< substrate protein remaining %≤ 100%) | A (0% ≤ substrate protein remaining % ≤ 80%) |
| Cc1nc(C2CCN(Cc3ccc4c(c3)C(=O)N(N3CCC(=O)NC3=O)C4=O)CC2)c2c3c(sc2n1)CCCC3 [GT-08111, 2-(2,4-dioxotetrahydropyrimidin-1(2H)-yl)-5-((4-(2-methyl-5,6,7,8-tetrahydrobenzo[4,5]thieno[2,3-d]pyrimidin-4-yl)piperidin-1-yl)methyl)isoindoline-1,3-dione] | 20 to 40% | 20 to 40% | – | – | 25 to 40% | 25 to 40% | B (80%< substrate protein remaining %≤ 100%) | 20 to 25% | 25 to 30% | B (80%< substrate protein remaining %≤ 100%) | A (0% ≤ substrate protein remaining % ≤ 80%) | B (80%< substrate protein remaining %≤ 100%) | B (80%< substrate protein remaining %≤ 100%) | A (0% ≤ substrate protein remaining % ≤ 80%) |
| O=C1CCN(N2Cc3cc(CN4CCC(c5ncnc6sc7c(c56)CCCC7)CC4)ccc3C2=O)C(=O)N1 [GT-08112, 1-(1-oxo-5-((4-(5,6,7,8-tetrahydrobenzo[4,5]thieno[2,3-d]pyrimidin-4-yl)piperidin-1-yl)methyl)isoindolin-2-yl)dihydropyrimidine-2,4(1H,3H)-dione] | 15 to 20% | 20 to 40% | – | – | 15 to 18% | 25 to 40% | B (80%< substrate protein remaining %≤ 100%) | 15 to 20% | 25 to 30% | B (80%< substrate protein remaining %≤ 100%) | B (80%< substrate protein remaining %≤ 100%) | B (80%< substrate protein remaining %≤ 100%) | B (80%< substrate protein remaining %≤ 100%) | A (0% ≤ substrate protein remaining % ≤ 80%) |
| O=C1CCN(N2Cc3cc(CN4CCC(c5cccc(F)c5F)CC4)ccc3C2=O)C(=O)N1 [GT-08194, 1-(5-((4-(2,3-difluorophenyl)piperidin-1-yl)methyl)-1-oxoisoindolin-2-yl)dihydropyrimidine-2,4(1H,3H)-dione] | – | – | 18 to 25% | 60 to 80% | 18 to 25% | 25 to 40% | B (80%< substrate protein remaining %≤ 100%) | 20 to 25% | 20 to 25% | B (80%< substrate protein remaining %≤ 100%) | B (80%< substrate protein remaining %≤ 100%) | B (80%< substrate protein remaining %≤ 100%) | A (0% ≤ substrate protein remaining % ≤ 80%) | A (0% ≤ substrate protein remaining % ≤ 80%) |
